Reference: ChEMBL document CHEMBL1151982, “Natural products as tools for neuroscience: discovery and development of novel agents to treat drug abuse” (J Nat Prod, 2009)

Experiments:
Type in all cases: functional
[1] = biological target: T1, Kappa-type opioid receptor (Homo sapiens, UniProt P41145); test: Antagonist activity at kappa opioid receptor by [35S]GTPgammaS binding assay
[2] = biological target: T1, Kappa-type opioid receptor; test: Agonist activity at kappa opioid receptor by [35S]GTPgammaS binding assay relative to (-)-U50,488H
[3] = biological target: T1, Kappa-type opioid receptor; test: Agonist activity at kappa opioid receptor by [35S]GTPgammaS binding assay

T1 sequence (P41145 whole entry): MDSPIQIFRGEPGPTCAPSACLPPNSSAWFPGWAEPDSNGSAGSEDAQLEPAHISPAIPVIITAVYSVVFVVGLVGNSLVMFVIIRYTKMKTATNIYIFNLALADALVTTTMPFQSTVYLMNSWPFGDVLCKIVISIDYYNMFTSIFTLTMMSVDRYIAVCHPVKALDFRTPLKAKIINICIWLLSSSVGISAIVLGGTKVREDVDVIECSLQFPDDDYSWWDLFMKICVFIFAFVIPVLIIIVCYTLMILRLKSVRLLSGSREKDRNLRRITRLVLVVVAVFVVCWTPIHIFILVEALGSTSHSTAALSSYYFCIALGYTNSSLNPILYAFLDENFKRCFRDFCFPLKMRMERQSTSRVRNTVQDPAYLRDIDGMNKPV

| SMILES | Ki [1] [µM] | Emax [2] [%] | EC50 [3] [µM] |
| --- | --- | --- | --- |
| COC(=O)[C@@H]1C[C@H](OC(C)=O)C(=O)[C@@H]2[C@@]3(C)C[C@@H]([C@]4(O)[C@@H](OC)O[C@@H](OC)[C@H]4O)CC(=O)[C@@H]3CC[C@]21C [SALVINICIN B] | > 1.9 | – | – |
| COC(=O)[C@@H]1C[C@H](OC(C)=O)C(=O)[C@H]2[C@@]1(C)CC[C@H]1C(=O)O[C@H]([C@]3(O)[C@H](OC)O[C@H](OC)[C@H]3O)C[C@]21C [SALVINICIN A] | – | 80 | 4.1 |
